Source: ChEMBL document CHEMBL1201862, “PubChem BioAssay data set” (2004)
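Interpolation was linear, between the two tested concentrations surrounding the appropriate level; five concentrations were tested over 48 hours in 96-well plates. Here, GI50 denotes the concentration required for 50% inhibition of growth.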 The source made the active and inactive calls. No stated cut-off is given here; in the data, active = GI50 up to about 1.1 µM and inactive = higher.

Assays:
Assay in all cases: inhibition of tumour cell growth, NCI panel, 48 h
[1] = tested on: DLD-1
[2] = tested on: DMS-114
[3] = tested on: HOP-18
[4] = tested on: LXFL 529
[5] = tested on: M19-MEL
[6] = tested on: RXF 631
[7] = tested on: SNB-78
[8] = tested on: XF498
[9] = tested on: BT-549

Structure (SMILES): CC1S(=O)(=O)OCCOS1(=O)=O
- GI50 [1]: > 100 µM (inactive)
- GI50 [2]: 39.2 µM (inactive)
- GI50 [3]: > 100 µM (inactive)
- GI50 [4]: > 100 µM (inactive)
- GI50 [5]: > 100 µM (inactive)
- GI50 [6]: 31.7 µM (inactive)
- GI50 [7]: > 100 µM (inactive)

Structure (SMILES): O=C(Cc1ccccc1)NN1C(=O)C(Cl)C1c1ccc(Cl)cc1 (configuration not stated)
- GI50 [1]: > 100 µM (inactive)
- GI50 [2]: > 100 µM (inactive)
- GI50 [3]: > 100 µM (inactive)
- GI50 [4]: > 100 µM (inactive)
- GI50 [7]: > 100 µM (inactive)
- GI50 [8]: > 100 µM (inactive)

Structure (SMILES): Cc1nc2sc3cccc(Cl)c3n2c(=O)c1/N=N/c1ccc(Cl)cc1
- GI50 [9]: 93.8 µM (inactive)

Structure (SMILES): COC1=CC(=O)c2c(O)ccc(O)c2C1=O
- GI50 [9]: 2.44 µM (inactive)

Structure (SMILES): COC(=O)c1ccc(/N=N/N(C)COc2ccc(Br)cc2)cc1
- GI50 [1]: > 54.6 µM (inactive)
- GI50 [2]: 55.7 µM (inactive)
- GI50 [3]: > 100 µM (inactive)
- GI50 [5]: > 100 µM (inactive)
- GI50 [7]: > 100 µM (inactive)
- GI50 [8]: > 100 µM (inactive)

Structure (SMILES): CC1CN(c2cc3c(cc2F)c(=O)c(C(=O)O)cn3-c2ccc(F)cn2)CC(C)N1 (configuration not stated)
- GI50 [9]: > 100 µM (inactive)

Structure (SMILES): COC(=O)C1=C(OC(=O)/C(=C/c2ccccc2)c2ccc(Cl)cc2Cl)C(C(=O)OC)[C@@]2(O)[C@@H](C(=O)OC)[C@H](C)C[C@@H]1[C@@H]2C(=O)OC (some centres not stated)
- GI50 [9]: > 100 µM (inactive)

Structure (SMILES): CC(C)(C)OC(=O)CN1CCN(CC(=O)N2CCN(C(=O)OCc3ccccc3)CC2)CCN(CC(=O)OC(C)(C)C)CCN(CC(=O)N2CCN(C(=O)OCc3ccccc3)CC2)CC1
- GI50 [9]: 3.94 µM (inactive)

Structure (SMILES): COc1ccccc1Nc1nc(NNC(=O)Cc2ccccc2)nc(NNC(=O)c2ccncc2)n1
- GI50 [9]: > 10 µM (inactive)

Structure (SMILES): O=c1cc2ccccc2nn1Cc1ccccc1Cl
- GI50 [1]: > 100 µM (inactive)
- GI50 [2]: 67.6 µM (inactive)
- GI50 [3]: > 100 µM (inactive)
- GI50 [5]: > 100 µM (inactive)
- GI50 [7]: > 100 µM (inactive)
- GI50 [8]: 80.2 µM (inactive)

Structure (SMILES): COc1ccc(/C=C2/SC(c3ccc(Cl)cc3)N(NC(=O)CCCCCCCCC(=O)NN3C(=O)/C(=C\c4ccc(OC)c(OC)c4)SC3c3ccc(Cl)cc3)C2=O)cc1OC (configuration not stated)
- GI50 [9]: > 100 µM (inactive)

Structure (SMILES): O=[N+]([O-])c1ccc(C(O)(C#CCN2CCCC2)c2ccccc2)cc1 (configuration not stated)
- GI50 [9]: 77.4 µM (inactive)

Structure (SMILES): O=C1/C(=C/c2ccc(Cl)cc2)Oc2ccccc21
- GI50 [9]: 25.6 µM (inactive)

Structure (SMILES): CO/N=C(\C(=O)O/C(=N/C1CCCCC1)NC1CCCCC1)c1csc(NC(c2ccccc2)(c2ccccc2)c2ccccc2)n1
- GI50 [9]: > 10 µM (inactive)

Structure (SMILES): Nc1nc(O)c2ncn([C@H]3CC[C@@H](CO)O3)c2n1
- GI50 [9]: > 100 µM (inactive)

Structure (SMILES): COc1ccc(NC(=S)N/N=C/c2cccc(C)n2)cc1
- GI50 [9]: 10.7 µM (inactive)

Structure (SMILES): CCCNC(=O)c1cc(NC(=O)c2cc(NC(=O)CCS(=O)(=O)OC)cn2C)cn1C
- GI50 [9]: 3.68 µM (inactive)

Structure (SMILES): COc1cc(Cc2cc(OC)c(OC)c(OC)c2)ccc1O
- GI50 [1]: 6.11 µM (inactive)
- GI50 [2]: 4.63 µM (inactive)
- GI50 [4]: 43.6 µM (inactive)
- GI50 [5]: 6.38 µM (inactive)
- GI50 [7]: 40.6 µM (inactive)
- GI50 [8]: 19.9 µM (inactive)

Structure (SMILES): CCOC(=O)c1cn2c(n1)sc1cc(Cl)ccc12
- GI50 [9]: > 100 µM (inactive)

Structure (SMILES): CC(C)(C)OC(=O)C1=C(C(=O)OC(C)(C)C)SC2(S1)C(C(=O)OC(C)(C)C)=C(C(=O)OC(C)(C)C)Sc1c2ssc1=O
- GI50 [9]: 67 µM (inactive)

Structure (SMILES): Cc1cc(S(=O)(=O)Nc2nc(N)nc(N(C)C)n2)c(SCC(=O)O)cc1Cl
- GI50 [9]: > 10 µM (inactive)
